Patent US7728146B2, “Enzyme inhibitors” (Probiodrug AG, priority 2006, dated 2010)

Assays:
[1] = molecular target: dipeptidyl peptidase (DP IV) (UniProt P27487); assay: Determination of IC50 against DP IV (hydrolysis of Gly-Pro-pNA); assay type: biochemical, porcine kidney or recombinant human; settings: compounds obtained by preparative synthesis
Experimental: Determination of IC50 Against DP IV
Substances are screened for inhibition of dipeptidyl peptidase (DP IV) by their ability to inhibit the hydrolysis of the DP IV specific substrate Glycyl-Prolyl-4-Nitroanilide (Gly-Pro-pNA). All compounds are diluted in DMSO and IC50 will be determined with 11 serial dilutions (1:2) starting with an final concentration of 100 μM. The final DMSO concentration in the assay is 5% (v/v). The method was automated using a Tecan Genesis Freedom liquid handler and a Genius Pro (Tecan) microplate reader.
A stock solution of 0.102 M HEPES is prepared. Ionic strength (I=0.32) is adjusted by KCl and pH (pH 7.6) by KOH.
2.16 mM solution of Gly-Pro-pNA in deionized water is prepared.
All samples are dissolved in DMSO preparing a 10 mM stock solution.
DP IV from porcine kidney (pDP IV) or recombinant human DP IV (rhDP IV) is diluted in HEPES buffer to a final activity of approximately 40-50 μU*ml^−1. The DP IV is stored in a cooling rack (4° C.) on the liquid handler.
The assay may becarried out at room temperature using Freedom liquid handler connected with a Genios Pro microplate reader. Each sample is measured in duplicate. Each sample stock solution is prediluted with DMSO in a ratio of 1:5 in a polypropylen 96-well plate. From this predilution 10 serial (1:2) dilutions in DMSO are prepared. 13.5 μl of the 11 DMSO dilutions and DMSO alone are transferred to the measurement microplate (duplicates) and 86.5 μl water, 100 μl HEPES buffer and 50 μl substrate solution are added to each well. The enzymatic reaction is started by addition of 20 μl enzyme solution to each well, and then the microplate is immediately transferred to the microplate reader.
After short mixing (20 s) the release of 4-Nitroanilin (pNA) is monitored at 405 nm for 30 cycles (approx. 18 min).
Post assay calculations are done by the Magellan (Tecan) and Graphit Software. The linear slopes are calculated for each well and averaged for the duplicates. The residue activities are calculated in relation to a sample containing only solvent instead of inhibitor and expressed in %. Residue activities are plotted against the log of inhibitor concentrations and IC50 is calculated by an 4-parameter fitting ranging from 0 to 100%.

[2] = test system: neuroblastoma cell line SY5Y; assay: LD50 determination on SY5Y (LDH); assay type: cell-based; settings: 8 serial dilutions, highest concentration 1 mM
Experimental: (§1) After 24 h of cultivation in a 96 well plate (50 000 cells/well) compounds (dissolved in DMSO) are added and cytotoxicity and vitality of the cells are analysed after another 24 h of cultivation using the CytoTox-One Homogenoeous membrane toxicity assay (Promega).
(§2) For cytotoxicity the LDH activity in the cell culture media after 24 h of incubation are analysed. The untreated control is set to 0% cytotoxicity. For the 100% value LDH activity of lysed untreated cells are analysed.
(§3) For viability cell culture media are removed from the cells and all cells are lysed using the lysis buffer. LDH activity is determined and untreated control is set to 100% viability.
(§4) For determination of LD50 the liver carcinoma cell line HEP-G2 and the neuroblastoma cell line SY5Y may be used. The effect of 8 serial dilutions of the compounds (highest concentration 1 mM) is investigated as described above.

DP9 = DP9 (Homo sapiens, UniProt Q86TI2); assay: DP9 assay; assay type: biochemical; settings: for IC50: Gly Pro-AMC 0.25 mM; for Selectivity DP9(IC50)/DPIV(Ki): ratio IC50 DP9 / Ki DP IV
Sequence of DP9 (Q86TI2 whole entry, species assumed): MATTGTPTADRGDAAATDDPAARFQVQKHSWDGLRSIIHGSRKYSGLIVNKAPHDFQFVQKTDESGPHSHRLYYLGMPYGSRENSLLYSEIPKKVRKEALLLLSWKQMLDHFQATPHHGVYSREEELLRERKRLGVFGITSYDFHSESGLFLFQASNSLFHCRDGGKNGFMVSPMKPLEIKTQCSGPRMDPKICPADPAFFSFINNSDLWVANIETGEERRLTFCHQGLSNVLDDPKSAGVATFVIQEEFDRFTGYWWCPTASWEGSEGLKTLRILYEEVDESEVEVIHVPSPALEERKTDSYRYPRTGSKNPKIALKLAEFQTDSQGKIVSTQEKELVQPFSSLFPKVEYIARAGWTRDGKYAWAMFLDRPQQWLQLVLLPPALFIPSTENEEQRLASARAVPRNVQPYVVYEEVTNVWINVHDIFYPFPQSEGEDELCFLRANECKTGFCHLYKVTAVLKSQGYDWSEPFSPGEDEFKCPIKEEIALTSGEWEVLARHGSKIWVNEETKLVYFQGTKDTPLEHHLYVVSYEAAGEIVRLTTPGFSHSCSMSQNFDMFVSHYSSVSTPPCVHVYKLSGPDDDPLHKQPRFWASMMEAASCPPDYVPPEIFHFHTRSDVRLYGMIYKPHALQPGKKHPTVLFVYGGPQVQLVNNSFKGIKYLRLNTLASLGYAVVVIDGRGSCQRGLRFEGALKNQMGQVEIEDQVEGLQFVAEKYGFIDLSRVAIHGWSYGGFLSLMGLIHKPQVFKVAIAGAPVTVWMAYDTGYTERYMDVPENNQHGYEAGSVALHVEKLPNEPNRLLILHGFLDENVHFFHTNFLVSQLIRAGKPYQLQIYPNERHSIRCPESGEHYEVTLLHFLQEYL
Experimental: (§5) Determination of IC50 values for DPII and DP9 are done similarly as described for DP IV.
For DP9 Gly Pro-AMC is used as substrate in a final concentration of 0.25 mM.

[3] = test system: liver cell carcinoma cell line Hep-G2; assay: Cytotoxicity screening and LD50 determination on Hep-G2 (LDH, CytoTox-One); assay type: cell-based; settings: for Cytotox 100 μM (%) HEPG2 / Viability 100 μM (%) HEP-G2: 24 h; for Cytotox 100 μM (%) HEPG2: LDH activity in cell culture media, lysed untreated cells = 100%; for Viability 100 μM (%) HEP-G2: LDH of lysed cells, untreated control = 100%; for Cytotox 100 μM (%) HEPG2 / Viability 100 μM (%) HEP-G2 / Observed cytotox: 100 μM; for Observed cytotox: Hep-G2, observation of the cells; for LD50 Viability HEP-G2 / LD50 cytotox HEP-G2: 8 serial dilutions, highest concentration 1 mM
Experimental: Cytotoxicity of the compounds may be screened using the liver cell carcinoma cell line Hep-G2.
as §1
Three concentrations (100 μM, 2 μM, 40 nM) of each compound are analysed in triplicates. The final DMSO concentration was 1%.
as §2, §3, §4
The cytotoxicity of certain example compounds (in each case prepared by preparative synthesis) was screened using Hep-G2 cells. Compounds were tested in concentrations of 100 μM, 2 μM and 40 nM.

DP IV [4] = molecular target: T1, DP IV (Homo sapiens, UniProt P27487); assay: DP IV inhibition IC50, parallel-synthesis compounds tested directly following synthesis (without purification); assay type: biochemical; set-up: IC50 DP4; other: tested directly following parallel synthesis, without purification; compounds of formula (Ib) from parallel synthesis, tested directly following synthesis; settings: DP IV inhibition; compounds of formula (Ib) from parallel synthesis, tested directly following synthesis (without purification); read-out: IC50
T1 sequence (P27487 whole entry): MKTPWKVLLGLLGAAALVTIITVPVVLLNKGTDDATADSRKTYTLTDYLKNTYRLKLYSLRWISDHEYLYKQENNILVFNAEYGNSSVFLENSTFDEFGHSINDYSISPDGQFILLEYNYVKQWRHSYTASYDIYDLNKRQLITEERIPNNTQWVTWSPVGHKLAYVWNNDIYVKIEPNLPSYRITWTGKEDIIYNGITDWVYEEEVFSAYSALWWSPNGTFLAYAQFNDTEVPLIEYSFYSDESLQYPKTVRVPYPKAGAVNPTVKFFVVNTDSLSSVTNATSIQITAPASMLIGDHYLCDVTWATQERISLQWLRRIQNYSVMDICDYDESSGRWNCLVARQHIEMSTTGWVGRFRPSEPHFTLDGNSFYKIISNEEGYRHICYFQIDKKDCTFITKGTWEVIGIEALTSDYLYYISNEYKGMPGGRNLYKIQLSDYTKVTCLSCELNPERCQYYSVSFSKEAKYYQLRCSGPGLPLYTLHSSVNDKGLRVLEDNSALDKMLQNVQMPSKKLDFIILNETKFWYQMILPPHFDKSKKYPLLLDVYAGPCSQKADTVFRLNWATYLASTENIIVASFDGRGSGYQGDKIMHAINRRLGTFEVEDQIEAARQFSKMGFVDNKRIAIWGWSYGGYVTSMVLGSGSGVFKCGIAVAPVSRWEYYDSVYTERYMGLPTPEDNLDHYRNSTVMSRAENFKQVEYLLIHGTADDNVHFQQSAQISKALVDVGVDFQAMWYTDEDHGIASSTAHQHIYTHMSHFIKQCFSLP
How it was run: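 IC50 came from a 4-parameter fit of residual activity (linear 405 nm slopes for pNA release over ~18 min, relative to solvent-only wells). Gly-Pro-pNA was the substrate, cleaved by porcine kidney or recombinant human DP IV at room temperature in HEPES with 5% DMSO; duplicate 1:2 series started at 100 μM final.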

Caco-2 monolayer = assay: Caco-2 transport assay; assay type: in vitro ADME, human; settings: assessment of permeability and transport type
Experimental: (§6) The concentration of compounds in the Caco experiments may be determined from their potency to inhibit recombinant human DP IV.
(§7) Reaction is started by addition of 20 μl rhDP IV and release of pNA was monitored at 405 nm. Samples are analyzed in several dilutions (undiluted, 1:10, 1:[…]). Dilutions are done in the Caco assay buffer. Activity measured with Caco-assay buffer alone is set to 100% and inhibitor concentration is calculated from the dilutions resulting in 20 to 80% inhibition according to the equation for competitive inhibition.
(§8) [formula] • I=inhibitor concentration • v0=velocity of the reaction without inhibitor (Caco assay buffer alone) • vi=velocity of the reaction with inhibitor sample • Ki=Ki-value of the compound • DF=dilution factor of the sample Transport Assay
(§9) The human colon adenocarcinome cell line Caco-2 are grown in 6- or 24-transwell microplates (Costar) for 21 days with MEM-alpha containing 10% FBS and 0.5% Gentamycin (Invitrogen). After 21 days of cultivation integrity of the cell layer are assessed by measurement of the transepitelial electrical resistance.
(§10) Transport measurements are carried out in triplicates at a pH of 7.5. For each compound and direction (apical to basal (a-b), basal to apical (b-a)) two separate experiments are done. Samples are collected from the donor and acceptor compartments at the beginning of the experiment and after 60 min (for 6-well plates, Donor at 0 and 120 min, Acceptor at 15, 30, 60 and 120 min).
(§11) Samples are analyzed in several dilutions for their ability to inhibit human recombinant DP IV and compound concentrations may be calculated using the prior determined Ki-value (see above).
(§12) The permeability coefficient Papp is calculated according to the following equation:
(§13) [formula] • VA=Volume of the acceptor compartment • A=Area of the transwell membrane • t=sampling time • cAt=concentration in the acceptor compartment at sampling time • CDO=concentration in the donor compartment at t=0
(§14) Papp-values>1e-5 cm/s are assessed as good permeable, value<1e-6 cm/s as not permeable. Papp-values in between as medium permeable. Compounds where no significant difference were found between a-b and b-a transport are assessed to be passive transported.

Caco-2 transport assay = assay type: in vitro ADME, human; settings: human, Caco-2, pH 7.5; for Papp A→B: apical to basal; for Papp B→A: basal to apical
Experimental: as §6, §7, §8, §9, §10, §11, §12, §13, §14

DPII = DPII (Homo sapiens, UniProt Q9UHL4); assay: DPII assay; assay type: biochemical; settings: for Selectivity DPII(IC50)/DPIV(Ki): ratio IC50 DPII / Ki DP IV; for IC50: sodium acetate buffer pH 5.5, Gly-Pro-AMC 1 mM
Experimental: as §5
For DPII instead of the HEPES buffer a 0.2 M sodium acetate buffer pH 5.5 is used. As substrate Gly-Pro-AMC is used in a final concentration of 1 mM.

DP IV [5] = molecular target: T1, DP IV; assay: Ki and inhibition type, DP IV; assay type: biochemical; settings: compounds obtained by preparative synthesis
Experimental: Measurement of DP IV activities for Ki determination is carried out as described for IC50. For Ki determination samples were analysed in triplicates. 7 serial dilutions of the inhibitor (range calculated from the IC50 determination) in water are analyzed with 4 serial dilutions of the substrate.
Data are analysed by non-linear regression to the inhibitor equations using Graphit software. Ki-value and inhibition type are determined using the inhibitor equation (competitive, partiell competitive, non-competitive) which gives the best fitting results. […]

[6] = solubility (dosing solution in saline); assay type: physicochemical; settings: compounds were dissolved in saline for dosing
Experimental: The animals were treated by a single oral dose of 3 mg/kg (5 mL/kg b.w.; treatment A) followed by a wash-out period of at least 3 days before intraarterial administration of 3 mg/kg (2 mL/kg b.w.; treatment B). The compounds were dissolved in saline to a final concentration adequate for an application of 3 mg/kg b.w.

SMILES | IC50 [1] [nM] | LD50 Viability SY5Y [2] [mM] | LD50 cytotox SY5Y [2] [mM] | IC50 (DP9) [µM] | Selectivity DP9(IC50)/DPIV(Ki) (DP9) | Cytotox 100 μM (%) HEPG2 [3] [%] | Viability 100 μM (%) HEP-G2 [3] [%] | Observed cytotox [3] [% spheric] | LD50 Viability HEP-G2 [3] [mM] | LD50 cytotox HEP-G2 [3] [mM] | IC50 (DP IV [4]) [nM] | Transport (Caco-2 monolayer) | Papp A→B (Caco-2 transport assay) [×10⁻⁶ cm/s] | Papp B→A (Caco-2 transport assay) [×10⁻⁶ cm/s] | Selectivity DPII(IC50)/DPIV(Ki) (DPII) | IC50 (DPII) [µM] | Ki (DP IV [5]) [nM] | solubility [6] | Ki (DPII) [nM] | Ki (DP9) [µM]
COc1ccccc1Cn1cnc(-c2ccc(Cl)cc2Cl)c1CN [Example 120b, C-[5-(2,4-dichloro-phenyl)-3-(2-methoxy-benzyl)-3H-imidazol-4-yl]-methylamine] | 261 | 0.10 | 0.16 | 59.7 | 3,778 | 11.6 | 108.9 | 50 | 0.21 | 0.17 | 1900 | good, passive | 51.2 | 52.8 | 1,177 | 18.6 | 15.8 |  |  | 
COc1cccc(Cn2cnc(-c3ccc(Cl)cc3Cl)c2CN)c1 [Example 59b, C-[5-(2,4-dichloro-phenyl)-3-(3-methoxy-benzyl)-3H-imidazol-4-yl]-methylamine] | 221 |  |  |  | 7,974 | 1.2 | 116.3 | 10 |  |  | 3700 | good, passive | 49.7 | 38.3 | 2,542 | 38.9 | 15.3 |  |  | 
CCOc1ccccc1Cn1cnc(-c2ccc(Cl)cc2Cl)c1CN [Example 128b, (1-(2-ethoxybenzyl)-4-(2,4-dichlorophenyl)-1H-imidazol-5-yl)methanamine] | 54 | 0.07 | 0.15 | 34.3 | 5,419 |  |  |  | 0.15 | 0.14 |  | good, active in | 45.1 | 15 | 540 | 3.42 | 6.33 | low solubility | 1570 | 
NCc1c(-c2ccc(Cl)cc2Cl)ncn1Cc1ccccc1Cl [Example 81b, C-[3-(2-chloro-benzyl)-5-(2,4-dichloro-phenyl)-3H-imidazol-4-yl]-methylamine] | 139 | 0.07 | 0.16 | 38.3 | 1,964 |  |  |  | 0.14 | 0.12 | 1000 | good, active in | 41.9 | 16 | 383 | 7.46 | 19.5 |  | 2180 | 7.65
